Measured values as given in PubChem BioAssay (NCI).
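Compound exposure: 48 hours, 5 concentrations, 96-well plates. Here, GI50 denotes the concentration required for 50% inhibition of growth. TGI: total growth inhibition.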

Tests used:
Test in all cases: DTP human tumour cell line panel, 48 h
[1] = system: NCI-H226 lung
[2] = system: UACC-257 melanoma
[3] = system: 786-0 renal
[4] = system: RXF 393 renal
[5] = system: PC-3 prostate
[6] = system: NCI-H460 lung
[7] = system: K-562 leukemia
[8] = system: CAKI-1 renal
[9] = system: HCT-116 colon
[10] = system: BT-549 breast
[11] = system: SF-539 CNS
[12] = system: OVCAR-3 ovarian
[13] = system: EKVX NSCLC
[14] = system: U251 CNS
[15] = system: SNB-19 CNS
[16] = system: CCRF-CEM leukemia
[17] = system: COLO 205 colon
[18] = system: NCI-H522 lung
[19] = system: HL-60(TB) leukemia
[20] = system: HS 578T breast
[21] = system: SK-MEL-28 melanoma
[22] = system: NCI/ADR-RES ovarian
[23] = system: OVCAR-4 ovarian
[24] = system: SF-268 CNS
[25] = system: RPMI-8226 leukemia
[26] = system: MCF7 breast
[27] = system: SK-MEL-5 melanoma

**Q.** How did the GI50 [1] turn out when Cc1ccc2c(n1)C(=O)C(Cl)=C(Nc1cccc(C)c1C)C2=O was run?
**A.** Its GI50 is 1940 nM.

**Q.** What about the TGI [1] of the same compound?
**A.** Its TGI is 4390 nM.

**Q.** And the GI50 [2]?
**A.** The GI50 was 1440 nM.

**Q.** What about the TGI [2] of the same compound?
**A.** Its TGI is 2800 nM.

**Q.** What about the GI50 [3] of the same compound?
**A.** Its GI50 is 1900 nM.

**Q.** And the TGI [3]?
**A.** Its TGI is 4080 nM.

**Q.** And the GI50 [4]?
**A.** Its GI50 is 1520 nM.

**Q.** What about the TGI [4] of the same compound?
**A.** Its TGI is 2880 nM.

**Q.** And the GI50 [5]?
**A.** The GI50 was 1430 nM.

**Q.** What about the TGI [5] of the same compound?
**A.** The TGI was 3480 nM.

**Q.** And the GI50 [6]?
**A.** The GI50 was 2250 nM.

**Q.** And the TGI [6]?
**A.** The TGI was 5620 nM.

**Q.** And the GI50 [7]?
**A.** Its GI50 is 770 nM.

**Q.** And the TGI [7]?
**A.** The TGI was 3580 nM.

**Q.** What about the GI50 [8] of the same compound?
**A.** Its GI50 is 1570 nM.

**Q.** And the TGI [8]?
**A.** Its TGI is 3120 nM.

**Q.** And the GI50 [9]?
**A.** Its GI50 is 871 nM.

**Q.** What about the TGI [9] of the same compound?
**A.** The TGI was 2600 nM.

**Q.** And the GI50 [10]?
**A.** Its GI50 is 1580 nM.

**Q.** And the TGI [10]?
**A.** The TGI was 3040 nM.

**Q.** And the GI50 [11]?
**A.** The GI50 was 1670 nM.

**Q.** What about the TGI [11] of the same compound?
**A.** The TGI was 3160 nM.

**Q.** What about the GI50 [12] of the same compound?
**A.** Its GI50 is 372 nM.

**Q.** And the TGI [12]?
**A.** Its TGI is 1400 nM.

**Q.** What about the GI50 [13] of the same compound?
**A.** Its GI50 is 1580 nM.

**Q.** And the TGI [13]?
**A.** Its TGI is 3730 nM.

**Q.** And the GI50 [14]?
**A.** Its GI50 is 1550 nM.

**Q.** What about the TGI [14] of the same compound?
**A.** Its TGI is 3080 nM.

**Q.** And the GI50 [15]?
**A.** Its GI50 is 1920 nM.

**Q.** And the TGI [15]?
**A.** The TGI was 5080 nM.

**Q.** What about the GI50 [16] of the same compound?
**A.** Its GI50 is 1250 nM.

**Q.** And the TGI [16]?
**A.** Its TGI is 5220 nM.

**Q.** And the GI50 [17]?
**A.** Its GI50 is 2030 nM.

**Q.** What about the TGI [17] of the same compound?
**A.** Its TGI is 4720 nM.

**Q.** What about the GI50 [18] of the same compound?
**A.** Its GI50 is 1960 nM.

**Q.** What about the TGI [18] of the same compound?
**A.** Its TGI is 4580 nM.

**Q.** And the GI50 [19]?
**A.** The GI50 was 1150 nM.

**Q.** And the TGI [19]?
**A.** Its TGI is 3490 nM.

**Q.** And the GI50 [20]?
**A.** The GI50 was 2210 nM.

**Q.** And the TGI [20]?
**A.** Its TGI is 6230 nM.

**Q.** What about the GI50 [21] of the same compound?
**A.** Its GI50 is 1930 nM.

**Q.** What about the TGI [21] of the same compound?
**A.** Its TGI is 3700 nM.

**Q.** What about the GI50 [22] of the same compound?
**A.** Its GI50 is 1920 nM.

**Q.** What about the TGI [22] of the same compound?
**A.** Its TGI is 6600 nM.

**Q.** What about the GI50 [23] of the same compound?
**A.** Its GI50 is 1140 nM.

**Q.** What about the TGI [23] of the same compound?
**A.** Its TGI is 2420 nM.

**Q.** And the GI50 [24]?
**A.** Its GI50 is 1610 nM.

**Q.** What about the TGI [24] of the same compound?
**A.** The TGI was 3480 nM.

**Q.** What about the GI50 [25] of the same compound?
**A.** Its GI50 is 1350 nM.

**Q.** What about the TGI [25] of the same compound?
**A.** The TGI was 4120 nM.

**Q.** And the GI50 [26]?
**A.** Its GI50 is 1160 nM.

**Q.** What about the TGI [26] of the same compound?
**A.** Its TGI is 2950 nM.

**Q.** What about the GI50 [27] of the same compound?
**A.** Its GI50 is 1620 nM.
